From patent publication US5306808A, “Peptide derivatives having vasodilating activity” (Takeda Chemical Industries, Ltd., priority 1991, dated 1994)
Where a SMILES comes first, the peptide text is derived from it. Bridges are numbered along the chain shown (N, C = ends).

What was measured:
[1] = system: porcine coronary artery; type: cell-based; settings: for Constrictor activity (Relative potency): ET-1 = 100; for Maximum Constriction (% 60 mM KCl): normalized to constriction response to 60 mM KCl
[2] = system: porcine coronary smooth muscles (constriction due to endothelin-1); experiment: Assay of constriction suppressing activity to porcine coronary smooth muscles; type: cell-based; settings: Sample: constriction due to 10^-9 M ET-1 in the presence of 10^-5 sample; Control: constriction due to 10^-9 M ET-1; formula shown only as drawing 9
Description: Its tension was detected by a force displacement transducer UL-10GR (Minebea), and recorded by a polygraph (NEC Sanei). […] A tension of 1.25 to 1.5 g was applied to each of the strips, followed by equilibration for 1.5 hours. 60 mM KCl was repeatedly applied thereto at intervals of 30 minutes until the constriction response became constant. After additional equilibration for 1.5 hours, a sample for assay was given. The constriction of the strips was normalized by the constriction response of the individual strips to 60 mM KCl and statistically processed.

[3] = system: endothelin receptor; experiment: Assay of affinity for receptor (I125-ET-1 binding to porcine myocardial membrane fraction); settings: ET-1 = 100

CC[C@H](C)[C@H](NC(=O)[C@H](CC(=O)O)NC(=O)[C@H](CC(C)C)NC(=O)[C@H](Cc1c[nH]cn1)NC(=O)[C@@H]1CSSC[C@H](N)C(=O)N[C@@H](CO)C(=O)N[C@@H](Cc2ccccc2)C(=O)N[C@@H](CO)C(=O)N[C@@H](CO)C(=O)N[C@@H](CC(C)C)C(=O)N[C@@H](CCSC)C(=O)N[C@@H](CC(=O)O)C(=O)N[C@@H](CCCCN)C(=O)N[C@@H](CCC(=O)O)C(=O)N[C@@H](Cc2ccccc2)C(=O)N[C@@H](C(C)C)C(=O)N[C@@H](Cc2ccc(O)cc2)C(=O)N[C@@H](Cc2ccccc2)C(=O)N1)C(=O)N[C@H](C(=O)N[C@@H](Cc1c[nH]c2ccccc12)C(=O)O)[C@@H](C)CC [Example 1, [Phe^3,11]-ET-1] (H-CSFSSLMDKEFVYFCHLDIIW-OH; disulfide 1-15)
Constrictor activity (Relative potency) [1]: < 0.3
Maximum Constriction (% 60 mM KCl) [1]: 9 % 60 mM KCl
Suppressing activity to ET-1 [2]: 77
Receptor binding activity (Relative potency) [3]: 0.45

CC[C@H](C)[C@H](NC(=O)[C@H](CC(=O)O)NC(=O)[C@H](CC(C)C)NC(=O)[C@H](Cc1c[nH]cn1)NC(=O)[C@@H]1CSSC[C@H](N)C(=O)N[C@@H](CO)C(=O)N[C@@H](Cc2ccccc2)C(=O)N[C@@H](CO)C(=O)N[C@@H](CO)C(=O)N[C@@H](CC(C)C)C(=O)N[C@@H](CCSC)C(=O)N[C@@H](CC(=O)O)C(=O)N[C@@H](CCCCN)C(=O)N[C@@H](CCC(=O)O)C(=O)N[C@@H](C)C(=O)N[C@@H](C(C)C)C(=O)N[C@@H](Cc2ccc(O)cc2)C(=O)N[C@@H](Cc2ccccc2)C(=O)N1)C(=O)N[C@H](C(=O)N[C@@H](Cc1c[nH]c2ccccc12)C(=O)O)[C@@H](C)CC [Example 2, [Phe^3, Ala^11]-ET-1] (H-CSFSSLMDKEAVYFCHLDIIW-OH; disulfide 1-15)
Constrictor activity (Relative potency) [1]: < 0.1
Maximum Constriction (% 60 mM KCl) [1]: 10 % 60 mM KCl
Suppressing activity to ET-1 [2]: 87
Receptor binding activity (Relative potency) [3]: 0.5

CC[C@H](C)[C@H](NC(=O)[C@H](CC(=O)O)NC(=O)[C@H](CC(C)C)NC(=O)[C@H](Cc1c[nH]cn1)NC(=O)[C@@H]1CSSC[C@H](N)C(=O)N[C@@H](CO)C(=O)N[C@@H](C)C(=O)N[C@@H](CO)C(=O)N[C@@H](CO)C(=O)N[C@@H](CC(C)C)C(=O)N[C@@H](CCSC)C(=O)N[C@@H](CC(=O)O)C(=O)N[C@@H](CCCCN)C(=O)N[C@@H](CCC(=O)O)C(=O)N[C@@H](Cc2ccccc2)C(=O)N[C@@H](C(C)C)C(=O)N[C@@H](Cc2ccc(O)cc2)C(=O)N[C@@H](Cc2ccccc2)C(=O)N1)C(=O)N[C@H](C(=O)N[C@@H](Cc1c[nH]c2ccccc12)C(=O)O)[C@@H](C)CC [Example 3, [Ala^3, Phe^11]-ET-1] (H-CSASSLMDKEFVYFCHLDIIW-OH; disulfide 1-15)
Constrictor activity (Relative potency) [1]: < 0.1
Maximum Constriction (% 60 mM KCl) [1]: 10 % 60 mM KCl
Suppressing activity to ET-1 [2]: 56
Receptor binding activity (Relative potency) [3]: 0.1
